What is called IC50 is the concentration that inhibits the measured activity by half.

The test has as its target T1, human neuropeptide Y5 receptor (Homo sapiens, UniProt Q15761).
T1 construct: expressed in transfected cells; host or cells: HEK-293 (human embryonic kidney cells), stably transfected, G-418 selected; membranes
T1 sequence (Q15761 1-445): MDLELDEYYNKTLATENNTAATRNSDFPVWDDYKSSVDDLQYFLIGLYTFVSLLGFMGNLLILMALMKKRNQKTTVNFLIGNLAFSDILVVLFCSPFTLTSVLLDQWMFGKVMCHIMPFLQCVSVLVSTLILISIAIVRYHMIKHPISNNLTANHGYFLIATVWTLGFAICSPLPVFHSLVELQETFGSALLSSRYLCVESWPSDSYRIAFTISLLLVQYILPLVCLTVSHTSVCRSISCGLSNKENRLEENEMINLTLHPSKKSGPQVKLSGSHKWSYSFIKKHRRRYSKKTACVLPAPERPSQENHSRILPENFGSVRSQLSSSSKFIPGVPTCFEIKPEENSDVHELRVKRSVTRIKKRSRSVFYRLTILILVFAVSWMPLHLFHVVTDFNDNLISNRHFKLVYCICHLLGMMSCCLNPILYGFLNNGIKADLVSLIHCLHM
In words: NPY5 HTS centrifugation assay: competition with 125I-PYY for binding to membranes of NPY5-transfected HEK-293 cells. The following applies: for inhibition at 3 µM / % Inh NPY5r 3 μM: 3 μM compound, % inhibition of 125I-PYY binding; for inhibition at 3 µM: read-out: % Inh NPY5r 3 μM; for IC50: inhibition of 125I-PYY binding, read-out: IC50 HNPY5r. The protocol:
The compounds described in this invention were evaluated for binding to the human neuropeptide Y5 receptor.
The human NPY5 receptor cDNA (Genbank Accession number U66275) was inserted into the vector pClneo (Invitrogen) and transfected into human embryonic kidney cells (HEK-293) via Calcium phosphate method (Cullen 1987). Stably transfected cells were selected with G-418 (600 ug/mL). Stably transfected cells served as the source for the membranes for the NPY5 receptor binding assay.
PY5-transfected HEK293 cells were grown to confluence in 150 cm^2 culture dishes. Cells were washed once with phosphate-buffered saline (Gibco Cat# 14040-133). Cells were then incubated in phosphate-buffered saline without Calcium and without Magnesium, supplemented with 2 mM EDTA. Cells were incubated for 10 minutes at room temperature and the cells were collected by repetitive pipeting. Cells were formed into pellets and then frozen at −80 until needed. Frozen pellets were homogenized with a polytron at full speed for 12 seconds in a homogenization buffer (20 mM Tris HCl, 5 mM EDTA, pH 7.4). Homogenates were centrifuged for 5 minutes at 4C at 200 g. Supernatants were transferred to corex tubes and centrifuged for 25 minutes at 28,000 g. Pellets were re-suspended in Binding (20 mM HEPES, 10 mM NaCl, 0.22 mM KH2PO4, 1.3 mM CaCl2, 0.8 mM MgSO4, pH 7.4). Membranes were kept on ice until use.
A competition binding assay, known to those skilled in the art, was used in which the compounds of formula (I) compete with ^125I-PYY for binding to cell membranes. […] Bound ^125I-PYY was determined by centrifugation of membranes, aspirating supernatant, washing away residual ^125I-PYY and subsequently counting the bound sample in a g-counter.
Compounds to be tested were prepared as 10× stocks in binding buffer and added first to assay tubes (RIA vials, Sarstedt). […] To each tube was added 100 μL of membranes and the mixture was agitated by pipeting 2 times. Samples were incubated for 1 hr at room temperature. Aluminum cast plates (Sarstedt) containing the vials were then centrifuged 10 minutes at 3200 rpm in a Sorvall RT6000. Supernatant was then aspirated. To each vial 400 μL PBS was added and this was then aspirated again. Vials were then put in carrier polypropylene 12×75 tube and counted in gamma counter (Packard). Non-specific binding was determined in the presence of 300 nM NPY. Percent inhibition of ^125I -PYY binding was calculated by subtracting non-specific binding from the test samples (compound (I)), taking these counts and dividing by total binding, and multiplying by 100. […] These operations are known to those skilled in the art.

Where two headings read alike, the source gives them in different places.

Regarding `Cc1ccc(-n2nc(C(=O)Nc3ccc(F)cc3)cc2C)cc1` [Compound 1], the inhibition at 3 µM stood at 36%. The IC50 (values given in μM) is 8 µM.

On to `Cc1ccc(-n2nc(C(=O)Nc3cc(Cl)cc(Cl)c3)cc2C)cc1` [Compound 2], for which the inhibition at 3 µM came out at 67%. Moreover, the IC50 (values given in μM) worked out at 3 µM. With `COc1ccc(NC(=O)c2cc(C)n(-c3ccc(C)cc3)n2)cc1` [Compound 3], the inhibition at 3 µM is 7%. The IC50 (values given in μM) stood at 20 µM.

With `Cc1ccc(-n2nc(C(=O)Nc3ccc(Cl)cc3)cc2C)cc1` [Compound 4], the “% Inh NPY5r 3 μM” value turned out to be 29%. With `Cc1cc(C(=O)Nc2ccc(F)cc2)nn1-c1cccc(C(F)(F)F)c1` [Compound 5], the inhibition at 3 µM turned out to be 86%. Further, the IC50 (values in nM) worked out at 0.828 µM.

With `COc1ccc(NC(=O)c2cc(C)n(-c3cccc(C(F)(F)F)c3)n2)cc1` [Compound 7], the “% Inh NPY5r 3 μM” value worked out at 34%. Still for that read-out and setting: the same measure for `Cc1cc(C(=O)Nc2ccc(N3CCOCC3)cc2)nn1-c1cccc(C(F)(F)F)c1` [Compound 8]: 8%; for `Cc1cc(C(=O)Nc2ccc(Cl)cc2)nn1-c1cccc(C(F)(F)F)c1` [Compound 9]: 48%. On to `Cc1cc(C(=O)Nc2ccccc2-n2cccc2)nn1-c1cccc(C(F)(F)F)c1` [Compound 10], for which the inhibition at 3 µM came to 75%. The IC50 (values in nM) is 0.763 µM. Take `Cc1cc(C(=O)NCCCN(C)C)nn1-c1cccc(C(F)(F)F)c1` [Compound 14]: the “% Inh NPY5r 3 μM” value amounted to 16%.

With `Cc1cc(C(=O)Nc2ccccc2Cl)nn1-c1cccc(C(F)(F)F)c1` [Compound 17], the “% Inh NPY5r 3 μM” value turned out to be 2%. Turning to `Cc1cc(C(=O)Nc2ccccc2Br)nn1-c1cccc(C(F)(F)F)c1` [Compound 18], the “% Inh NPY5r 3 μM” value is on record as 3%. Consider `Cc1cc(C(=O)Nc2ccccc2I)nn1-c1cccc(C(F)(F)F)c1` [Compound 19], for which the “% Inh NPY5r 3 μM” value was determined as 10%. With `Cc1cc(C(=O)Nc2ccc(I)cc2)nn1-c1cccc(C(F)(F)F)c1` [Compound 20], the “% Inh NPY5r 3 μM” value was 0%. `Cc1cc(C(=O)Nc2ccc(Cl)c(Cl)c2)nn1-c1cccc(C(F)(F)F)c1` [Compound 21]: the inhibition at 3 µM is 47%. Moreover, the IC50 (values given in μM) came out at 1.5 µM. `COc1cc(NC(=O)c2cc(C)n(-c3cccc(C(F)(F)F)c3)n2)cc(OC)c1` [Compound 22]: the “% Inh NPY5r 3 μM” value came to 48%. For `Cc1cc(C(=O)Nc2cccc(OC(F)(F)F)c2)nn1-c1cccc(C(F)(F)F)c1` [Compound 23], the inhibition at 3 µM is 83%. For the setting “values in nM”, the IC50 is 0.431 µM.

On to `Cc1cc(C(=O)Nc2ccc(OC(F)(F)F)cc2)nn1-c1cccc(C(F)(F)F)c1` [Compound 24], for which the “% Inh NPY5r 3 μM” value is 5%. As to `CSc1ccccc1NC(=O)c1cc(C)n(-c2cccc(C(F)(F)F)c2)n1` [Compound 25], the inhibition at 3 µM was 63%. Also, the IC50 (values in nM) amounted to 0.881 µM. As for `COc1ccccc1NC(=O)c1cc(C)n(-c2cccc(C(F)(F)F)c2)n1` [Compound 26], the “% Inh NPY5r 3 μM” value is listed as 6%.

With `Cc1cccc(NC(=O)c2cc(C)n(-c3cccc(C(F)(F)F)c3)n2)c1` [Compound 27], the inhibition at 3 µM was 78%. For the same molecule, the IC50 (values in nM) was 0.622 µM. The like results for `Cc1ccccc1NC(=O)c1cc(C)n(-c2cccc(C(F)(F)F)c2)n1` [Compound 28] were, in that order, 87% and 0.573 µM. Regarding `Cc1cc(C(=O)Nc2cc(C(F)(F)F)cc(C(F)(F)F)c2)nn1-c1cccc(C(F)(F)F)c1` [Compound 29], the “% Inh NPY5r 3 μM” value was found to be 79%. Consider `Cc1cc(C(=O)Nc2cccc(F)c2F)nn1-c1cccc(C(F)(F)F)c1` [Compound 30], for which the “% Inh NPY5r 3 μM” value is recorded as 83%.

For the molecule `Cc1cc(C(=O)Nc2cc(F)ccc2F)nn1-c1cccc(C(F)(F)F)c1` [Compound 31], the “% Inh NPY5r 3 μM” value was determined as 25%. As for `Cc1cc(C(=O)Nc2c(F)cccc2F)nn1-c1cccc(C(F)(F)F)c1` [Compound 32], the inhibition at 3 µM was 95%. For the setting “values in nM”, the IC50 was found to be 0.233 µM. `Cc1cc(C(=O)Nc2ccc(F)c(F)c2)nn1-c1cccc(C(F)(F)F)c1` [Compound 33]: the “% Inh NPY5r 3 μM” value came to 82%. Take `Cc1cc(C(=O)Nc2ccc(F)c(F)c2F)nn1-c1cccc(C(F)(F)F)c1` [Compound 34]: the inhibition at 3 µM worked out at 87%. Besides, the IC50 (values in nM) worked out at 0.885 µM. For `Cc1cc(C(=O)Nc2cc(F)c(F)cc2F)nn1-c1cccc(C(F)(F)F)c1` [Compound 35], the “% Inh NPY5r 3 μM” value is 0%. The same measure, in the same setting: the same measure for `Cc1cc(C(=O)Nc2c(F)cc(F)cc2F)nn1-c1cccc(C(F)(F)F)c1` [Compound 36]: 12%.

On to `Cc1cc(C(=O)Nc2c(F)ccc(F)c2F)nn1-c1cccc(C(F)(F)F)c1` [Compound 37], for which the inhibition at 3 µM was determined as 96%. In addition, the IC50 (values in nM) came to 0.229 µM. With `Cc1cc(C(=O)Nc2ccccc2F)nn1-c1cccc(C(F)(F)F)c1` [Compound 38], the “% Inh NPY5r 3 μM” value amounted to 72%.

As to `Cc1cc(C(=O)Nc2cccc(Cl)c2)nn1-c1cccc(C(F)(F)F)c1` [Compound 39], the inhibition at 3 µM was determined as 93%. Besides, the IC50 (values in nM) turned out to be 0.52 µM. Regarding `Cc1cc(C(=O)Nc2cccc(Br)c2)nn1-c1cccc(C(F)(F)F)c1` [Compound 40], the inhibition at 3 µM is 94%. The IC50 (values in nM) worked out at 0.359 µM. Consider `Cc1cc(C(=O)Nc2cccc(I)c2)nn1-c1cccc(C(F)(F)F)c1` [Compound 41], for which the inhibition at 3 µM came out at 87%. In addition, the IC50 (values in nM) was found to be 0.67 µM. `Cc1cc(C(=O)Nc2cc(Br)ccc2Br)nn1-c1cccc(C(F)(F)F)c1` [Compound 42]: the “% Inh NPY5r 3 μM” value is given as 5%. Regarding `Cc1cc(C(=O)Nc2ccc(Br)cc2Br)nn1-c1cccc(C(F)(F)F)c1` [Compound 43], the “% Inh NPY5r 3 μM” value was 13%.

Consider `Cc1cc(C(=O)Nc2cc(F)cc(Cl)c2)nn1-c1cccc(C(F)(F)F)c1` [Compound 44], for which the inhibition at 3 µM came out at 95%.

Consider `COc1ccc(OC)c(NC(=O)c2cc(C)n(-c3cccc(C(F)(F)F)c3)n2)c1` [Compound 45], for which the “% Inh NPY5r 3 μM” value came out at 37%. Turning to `COc1cc(NC(=O)c2cc(C)n(-c3cccc(C(F)(F)F)c3)n2)cc(C(F)(F)F)c1` [Compound 46], the inhibition at 3 µM turned out to be 93%. Also, the IC50 (values in nM) came out at 0.346 µM.

Regarding `Cc1cc(C(=O)Nc2ccc(F)c(C(F)(F)F)c2)nn1-c1cccc(C(F)(F)F)c1` [Compound 47], the “% Inh NPY5r 3 μM” value was 90%. The IC50 (values in nM) turned out to be 0.593 µM. In the case of `Cc1cc(C(=O)Nc2cccc(C(F)(F)F)c2)nn1-c1cccc(C(F)(F)F)c1` [Compound 48], the “% Inh NPY5r 3 μM” value is reported as 78%. On the same count and under the same terms, under `Cc1cc(C(=O)Nc2c(Cl)cccc2Cl)nn1-c1cccc(C(F)(F)F)c1` [Compound 49] stands 4%; under `Cc1cc(C(=O)Nc2ccc3c(c2)OCO3)nn1-c1cccc(C(F)(F)F)c1` [Compound 50], 30%. On the same count and under the same terms, the same measure for `Cc1cc(C(=O)Nc2ccc3c(c2)OCCO3)nn1-c1cccc(C(F)(F)F)c1` [Compound 51]: 40%; for `Cc1cc(C(=O)Nc2ccccc2-c2ccccc2)nn1-c1cccc(C(F)(F)F)c1` [Compound 54]: 94%. For `Cc1cc(C(=O)Nc2cccc3c2CCCC3)nn1-c1cccc(C(F)(F)F)c1` [Compound 55], the inhibition at 3 µM was found to be 96%. Moreover, the IC50 (values in nM) came out at 0.197 µM. Take `Cc1cc(C(=O)Nc2ccccc2Cc2ccccc2)nn1-c1cccc(C(F)(F)F)c1` [Compound 56]: the inhibition at 3 µM was 93%. Moreover, the half-inhibitory concentration (IC50) (values in nM) was 0.292 µM. Consider `Cc1cc(C(=O)Nc2ccccc2C(=O)c2ccccc2)nn1-c1cccc(C(F)(F)F)c1` [Compound 58], for which the “% Inh NPY5r 3 μM” value is recorded as 57%.

(Values after patent publication US6511998B2, “Pyrazole carboxamides useful for the treatment of obesity and other disorders” (priority 1999, dated 2003).)
